Test system: patients with advanced solid tumors
Experiment: Safety: treatment-emergent and senaparib-related adverse events graded per NCI CTCAE v4.03
Type: in vivo
Details: TEAE
Procedure: This phase I, open-label, multicenter, dose-escalation, and dose-expansion study was conducted at three national clinical institutions in China. […] At baseline, all patients enrolled in the dose-escalation phase had to have at least one evaluable lesion, and those in the dose-expansion period had to have at least one measurable lesion, according to Response Evaluation Criteria in Solid Tumors version 1.1 (RECIST v1.1).[16] Entry to the dose-expansion cohort required the presence of a BRCA mutation, with the exception of patients with ovarian carcinoma, fallopian tube carcinoma, and primary peritoneal carcinoma. Full study eligibility criteria are provided in Supplementary Table S1.
Dose escalation was conducted using a modified Fibonacci 3 + 3 method (Supplementary Fig. S1).[17] Patients were administered oral senaparib from a planned starting dose of 2 mg once daily (QD), with preliminary dose escalation to 120 mg via nine dose groups, in order of their entry into the study. At a given dose level, each patient received a single dose of senaparib followed by a 7-day washout period. They then entered a continuous dosing period to confirm the safety and PK profile, in which they received senaparib QD from day 1 to day 21 of each 3-week cycle. Progression to the next higher dose required approval from the Data Safety Monitoring Committee (DSMC) upon review of the safety and PK data of the previous dose. A 50-mg twice-daily (BID) dosing group was added (planned enrollment, n = 6 patients) based on a DSMC review of the safety, PK, and efficacy analysis of the completed QD dose groups in the phase I clinical trial of senaparib dose escalation in Australia (NCT03507543), which commenced prior to the start of this trial.
The dose-expansion period included 3 populations: dose groups in which at least one patient achieved complete response (CR) or partial response (PR) per RECIST v1.1[16] and 1 dose group higher (evaluated for safety), as well as the dose group at the maximum tolerated dose (MTD)/recommended phase II dose (RP2D). Each of these groups included those patients in the respective dose-escalation group plus a planned additional 10 patients (approximately 20 patients in the MTD/RP2D group) with BRCA^mut+ solid tumors (ovarian, breast, or prostate cancer were preferred, and ovarian cancer could be BRCA wild type). Patients received senaparib monotherapy orally QD or BID (50-mg dose only) over each 3-week cycle until disease progression or unacceptable toxicity.
DLTs were predefined toxicities (Supplementary Table S2) recorded over the 7 days following the single-dose administration of senaparib and during the first treatment cycle (day 1-day 21) for each dose group in the dose-escalation period only. The MTD was defined as the maximum dose at which ≤1/6 patients experienced a DLT. Senaparib PK parameters were derived from blood samples collected from patients after the single administration, and at regular intervals during the first cycle of the dose-escalation and dose-expansion periods. Plasma concentrations of senaparib were determined using high-performance liquid chromatography-tandem mass spectrometry. Tumor response was assessed every 6 weeks per RECIST v1.1,[16] recording objective response rate (ORR), disease control rate (DCR), duration of response (DOR), and progression-free survival (PFS) by dose level for all patients and for those harboring BRCA^mut+ tumors.

O=C(c1cc(Cn2c(=O)[nH]c(=O)c3c(F)cccc32)ccc1F)N1CCN(c2ncccn2)CC1 [Senaparib]
3 (75.0) n (%): Anemia (incl. hemoglobin decreased), All (120 mg QD n = 4)
4 (44.4) n (%): Nausea, All (80 mg QD n = 9) | Neutrophil count decreased, All (80 mg QD n = 9) | Platelet count decreased, All (80 mg QD n = 9)
7 (77.8) n (%): Anemia (incl. hemoglobin decreased), All (80 mg QD n = 9)
6 (30.0) n (%): Platelet count decreased, All (100 mg QD n = 20)
2 (50.0) n (%): ALT increased, All (120 mg QD n = 4) | AST increased, All (120 mg QD n = 4) | Asthenia, All (120 mg QD n = 4) | Blood bilirubin increased, All (120 mg QD n = 4)
9 (45.0) n (%): WBC decreased, All (100 mg QD n = 20)
4 (20.0) n (%): AST increased, All (100 mg QD n = 20) | Anemia (incl. hemoglobin decreased), Gr≥3 (100 mg QD n = 20) | Nausea, All (100 mg QD n = 20)
0 n (%): Asthenia, Gr≥3 (60 mg QD n = 5) | Blood bilirubin increased, All (60 mg QD n = 5) | Blood bilirubin increased, Gr≥3 (60 mg QD n = 5) | Blood creatinine increased, Gr≥3 (60 mg QD n = 5) | Hypokalemia, Gr≥3 (60 mg QD n = 5) | Hyponatremia, Gr≥3 (60 mg QD n = 5) | Nausea, Gr≥3 (60 mg QD n = 5) | Neutrophil count decreased, Gr≥3 (60 mg QD n = 5) | Pain in extremity, All (60 mg QD n = 5) | Pain in extremity, Gr≥3 (60 mg QD n = 5) | Platelet count decreased, Gr≥3 (60 mg QD n = 5) | Protein in urine, Gr≥3 (60 mg QD n = 5) | WBC decreased, Gr≥3 (60 mg QD n = 5) | ALT increased, Gr≥3 (80 mg QD n = 9) | AST increased, Gr≥3 (80 mg QD n = 9) | Abdominal distension, Gr≥3 (80 mg QD n = 9) | Appetite decreased, Gr≥3 (80 mg QD n = 9) | Asthenia, Gr≥3 (80 mg QD n = 9) | Blood bilirubin increased, Gr≥3 (80 mg QD n = 9) | Blood creatinine increased, Gr≥3 (80 mg QD n = 9) | Hypokalemia, Gr≥3 (80 mg QD n = 9) | Hyponatremia, Gr≥3 (80 mg QD n = 9) | Nausea, Gr≥3 (80 mg QD n = 9) | Pain in extremity, Gr≥3 (80 mg QD n = 9) | Protein in urine, All (80 mg QD n = 9) | Protein in urine, Gr≥3 (80 mg QD n = 9) | ALT increased, Gr≥3 (100 mg QD n = 20) | Abdominal distension, All (100 mg QD n = 20) | Abdominal distension, Gr≥3 (100 mg QD n = 20) | Appetite decreased, Gr≥3 (100 mg QD n = 20) | Asthenia, Gr≥3 (100 mg QD n = 20) | Blood bilirubin increased, Gr≥3 (100 mg QD n = 20) | Blood creatinine increased, Gr≥3 (100 mg QD n = 20) | Hypokalemia, All (100 mg QD n = 20) | Hypokalemia, Gr≥3 (100 mg QD n = 20) | Hyponatremia, Gr≥3 (100 mg QD n = 20) | Nausea, Gr≥3 (100 mg QD n = 20) | Pain in extremity, Gr≥3 (100 mg QD n = 20) | Protein in urine, Gr≥3 (100 mg QD n = 20) | Vomiting, Gr≥3 (100 mg QD n = 20) | AST increased, Gr≥3 (120 mg QD n = 4) | Abdominal distension, All (120 mg QD n = 4) | Abdominal distension, Gr≥3 (120 mg QD n = 4) | Appetite decreased, Gr≥3 (120 mg QD n = 4) | Asthenia, Gr≥3 (120 mg QD n = 4) | Blood creatinine increased, Gr≥3 (120 mg QD n = 4) | Hypokalemia, All (120 mg QD n = 4) | Hypokalemia, Gr≥3 (120 mg QD n = 4) | Hyponatremia, All (120 mg QD n = 4) | Hyponatremia, Gr≥3 (120 mg QD n = 4) | Nausea, Gr≥3 (120 mg QD n = 4) | Neutrophil count decreased, Gr≥3 (120 mg QD n = 4)
1 (25.0) n (%): ALT increased, Gr≥3 (120 mg QD n = 4) | Anemia (incl. hemoglobin decreased), Gr≥3 (120 mg QD n = 4) | Appetite decreased, All (120 mg QD n = 4) | Blood bilirubin increased, Gr≥3 (120 mg QD n = 4) | Blood creatinine increased, All (120 mg QD n = 4) | Nausea, All (120 mg QD n = 4) | Neutrophil count decreased, All (120 mg QD n = 4) | Pain in extremity, All (120 mg QD n = 4)
5 (25.0) n (%): ALT increased, All (100 mg QD n = 20) | Appetite decreased, All (100 mg QD n = 20) | Asthenia, All (100 mg QD n = 20) | Neutrophil count decreased, All (100 mg QD n = 20) | Vomiting, All (100 mg QD n = 20)
1 (5.0) n (%): AST increased, Gr≥3 (100 mg QD n = 20) | Platelet count decreased, Gr≥3 (100 mg QD n = 20) | WBC decreased, Gr≥3 (100 mg QD n = 20)
2 (40.0) n (%): Platelet count decreased, All (60 mg QD n = 5) | WBC decreased, All (60 mg QD n = 5)
3 (15.0) n (%): Blood bilirubin increased, All (100 mg QD n = 20)
11 (55.0) n (%): Anemia (incl. hemoglobin decreased), All (100 mg QD n = 20)
2 (22.2) n (%): AST increased, All (80 mg QD n = 9) | Asthenia, All (80 mg QD n = 9) | Blood bilirubin increased, All (80 mg QD n = 9) | Blood creatinine increased, All (80 mg QD n = 9) | Pain in extremity, All (80 mg QD n = 9) | Platelet count decreased, Gr≥3 (80 mg QD n = 9)
2 (10.0) n (%): Blood creatinine increased, All (100 mg QD n = 20) | Hyponatremia, All (100 mg QD n = 20) | Neutrophil count decreased, Gr≥3 (100 mg QD n = 20) | Pain in extremity, All (100 mg QD n = 20) | Protein in urine, All (100 mg QD n = 20)
1 (20.0) n (%): Blood creatinine increased, All (60 mg QD n = 5) | Hypokalemia, All (60 mg QD n = 5) | Hyponatremia, All (60 mg QD n = 5) | Nausea, All (60 mg QD n = 5) | Neutrophil count decreased, All (60 mg QD n = 5) | Protein in urine, All (60 mg QD n = 5) | Vomiting, All (60 mg QD n = 5) | Vomiting, Gr≥3 (60 mg QD n = 5)
3 (33.3) n (%): Abdominal distension, All (80 mg QD n = 9) | Anemia (incl. hemoglobin decreased), Gr≥3 (80 mg QD n = 9) | Appetite decreased, All (80 mg QD n = 9) | Hypokalemia, All (80 mg QD n = 9) | Vomiting, All (80 mg QD n = 9)
5 (55.6) n (%): WBC decreased, All (80 mg QD n = 9)
1 (11.1) n (%): ALT increased, All (80 mg QD n = 9) | Hyponatremia, All (80 mg QD n = 9) | Neutrophil count decreased, Gr≥3 (80 mg QD n = 9) | Vomiting, Gr≥3 (80 mg QD n = 9) | WBC decreased, Gr≥3 (80 mg QD n = 9)

Reference: PMC10712727, “Safety, Tolerability, and Pharmacokinetics of Senaparib, a Novel PARP1/2 Inhibitor, in Chinese Patients With Advanced Solid Tumors: A Phase I Trial” (The Oncologist, 2023)
